Data reported in ChEMBL document CHEMBL1126256, “Structural modifications of camptothecin and effects on topoisomerase I inhibition” (J Med Chem, 1992).
Active and inactive are the calls of the source. The rule behind the calls is not given here.

What was measured:
[1] = target: T1, DNA topoisomerase 1 (Homo sapiens) (UniProt P11387); experiment: Relative activity against DNA topoisomerase I was measured at concentration of 625 uM to that of camptothecin; Inactive
T1 sequence (whole entry): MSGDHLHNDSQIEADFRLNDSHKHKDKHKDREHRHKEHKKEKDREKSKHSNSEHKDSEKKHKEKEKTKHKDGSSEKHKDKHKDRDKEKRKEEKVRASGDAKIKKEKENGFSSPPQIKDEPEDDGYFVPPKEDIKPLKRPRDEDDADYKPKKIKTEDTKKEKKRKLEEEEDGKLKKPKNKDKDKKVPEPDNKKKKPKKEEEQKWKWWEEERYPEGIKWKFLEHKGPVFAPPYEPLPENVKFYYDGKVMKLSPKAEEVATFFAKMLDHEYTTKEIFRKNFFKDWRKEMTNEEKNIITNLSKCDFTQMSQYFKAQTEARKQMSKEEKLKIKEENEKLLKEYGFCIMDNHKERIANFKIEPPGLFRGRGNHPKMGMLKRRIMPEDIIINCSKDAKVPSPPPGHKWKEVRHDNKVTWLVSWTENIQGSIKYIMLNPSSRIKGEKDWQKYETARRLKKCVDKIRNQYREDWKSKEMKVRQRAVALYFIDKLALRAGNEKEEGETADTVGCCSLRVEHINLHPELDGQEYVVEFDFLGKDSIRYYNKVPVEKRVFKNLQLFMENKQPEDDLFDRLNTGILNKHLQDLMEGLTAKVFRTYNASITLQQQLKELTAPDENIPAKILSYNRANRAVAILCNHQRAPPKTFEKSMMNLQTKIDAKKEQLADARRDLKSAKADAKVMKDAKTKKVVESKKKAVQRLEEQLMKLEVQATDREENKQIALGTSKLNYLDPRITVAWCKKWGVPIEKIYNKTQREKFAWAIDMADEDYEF

[2] = target: T1, DNA topoisomerase 1 (Homo sapiens); experiment: Relative activity against DNA topoisomerase I was measured at concentration of 83 uM to that of camptothecin; Active, 10 fold less than camptothecin
[3] = target: T1, DNA topoisomerase 1 (Homo sapiens); experiment: Relative activity against Topoisomerase I was measured at concentration of 25 uM to that of camptothecin; Inactive
[4] = target: T1, DNA topoisomerase 1 (Homo sapiens); experiment: Relative activity against DNA topoisomerase I was measured at concentration of 833 uM to that of camptothecin; Inactive
[5] = target: T1, DNA topoisomerase 1 (Homo sapiens); experiment: Relative activity against DNA topoisomerase I was measured at concentration of 200 uM to that of camptothecin; Inactive
[6] = target: T1, DNA topoisomerase 1 (Homo sapiens); experiment: Relative activity against DNA topoisomerase I was measured at concentration of 12 uM to that of camptothecin
[7] = target: T1, DNA topoisomerase 1 (Homo sapiens); experiment: Relative activity against Topoisomerase I was measured at concentration of 360 uM to that of camptothecin; Active, 35 fold less than camptothecin
[8] = target: T1, DNA topoisomerase 1 (Homo sapiens); experiment: Relative activity against DNA topoisomerase I was measured at concentration of 277 uM to that of camptothecin; inactive
[9] = target: T1, DNA topoisomerase 1 (Homo sapiens); experiment: Relative activity against DNA topoisomerase I was measured at concentration of 554 uM to that of camptothecin; Active, 50 fold less than camptothecin
[10] = target: T1, DNA topoisomerase 1 (Homo sapiens); experiment: Relative activity against DNA topoisomerase I was measured at concentration of 166 uM to that of camptothecin; Inactive

Structure (SMILES): CCC(C(=O)OC)c1cc(=O)n2c(c1C(=O)OC)-c1nc3ccccc3cc1C2 (configuration not stated)
- Relative activity [1]: inactive

Structure (SMILES): CCC1C(=O)OCc2c1cc1n(c2=O)Cc2ccccc2-1 (configuration not stated)
- Relative activity [2]: Active
- Relative activity [3]: inactive

Structure (SMILES): CCC1C(=O)OCc2c1c(C(=O)OC)c1n(c2=O)CC2Cc3ccccc3CC12 (configuration not stated)
- Relative activity [4]: inactive

Structure (SMILES): CCC(C(=O)OC)c1cc2n(c(=O)c1)Cc1cc3ccccc3nc1-2 (configuration not stated)
- Relative activity [5]: inactive

Structure (SMILES): CCC1C(=O)OCc2c1c(C(=O)OC)c1n(c2=O)Cc2ccccc2-1 (configuration not stated)
- Relative activity [6]: inactive
- Relative activity [7]: Active

Structure (SMILES): CCC(C(=O)OC)c1cc(=O)n2c(c1C(=O)OC)C1Cc3ccccc3CC1C2 (configuration not stated)
- Relative activity [4]: inactive

Structure (SMILES): COC(=O)Cc1cc2n(c(=O)c1)Cc1cc3ccccc3nc1-2
- Relative activity [8]: inactive
- Relative activity [9]: Active

Structure (SMILES): COC(=O)Cc1cc(=O)n2c(c1C(=O)OC)-c1nc3ccccc3cc1C2
- Relative activity [10]: inactive

Structure (SMILES): COC(=O)Cc1cc(=O)n2c(c1C(=O)OC)C1Cc3ccccc3CC1C2 (configuration not stated)
- Relative activity [4]: inactive
